US20100249107A1, “Biomarkers for Alzheimer's Disease Progression” (priority 2006, published 2010)

Tested on: patients suffering from MCI
Assay: InDDEx (ENA713B IA07) clinical trial: conversion from MCI to AD
Type: in vivo, human
Source text: Introduction and summary. The purpose of this EXAMPLE is to describe genetic association studies identifying twenty-five (25) AD-associated mutations of the invention. Genome-wide analyses for genetic association studies have only become possible within the past two years. The Investigation Into Delay to Diagnosis of Alzheimer's Disease With Exelon (InDDex; ENA713B IA07) clinical trial followed patients suffering from MCI and given either Exelon (rivastigmine) at various doses or placebo and followed their conversion to AD.

What does the source list for CCN(C)C(=O)Oc1cccc([C@H](C)N(C)C)c1 [Exelon, rivastigmine]?
Converted to AD, % (All patients (enrolled in and completed the clinical study), Exelon arm n = 508): 17.32%; Converted to AD, % (Genome scan population (consented for pharmacogenetic study and passed the 100K scan), Exelon arm n = 211): 17.06%
